Experimental findings from publication PMC9286291, “A new adenine nucleotide transporter located in the ER is essential for maintaining the growth of Toxoplasma gondii” (PLoS Pathogens, 2022) are described below.

The target of one assay is T1, PfANT (Plasmodium falciparum, UniProt Q8IIM9).
T1 construct: gene PF3D7_1113300; expressed in the plasma membrane of intact IPTG-induced E. coli from an encoding plasmid
T1 sequence (Q8IIM9 1-343): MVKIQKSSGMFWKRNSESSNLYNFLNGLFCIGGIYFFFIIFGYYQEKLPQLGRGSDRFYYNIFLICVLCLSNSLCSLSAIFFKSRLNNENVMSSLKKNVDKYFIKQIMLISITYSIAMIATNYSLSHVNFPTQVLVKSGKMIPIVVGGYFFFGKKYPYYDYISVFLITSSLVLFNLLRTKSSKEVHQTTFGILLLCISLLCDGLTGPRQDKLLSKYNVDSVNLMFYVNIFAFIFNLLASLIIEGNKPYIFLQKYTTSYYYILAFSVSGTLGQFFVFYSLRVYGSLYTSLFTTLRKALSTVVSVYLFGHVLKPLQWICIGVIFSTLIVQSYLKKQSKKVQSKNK
In words: inhibition of [α-32P]ATP uptake into intact E. coli cells. It is filed as cell-based. The note with it: 25 nM [α-32P]ATP, unlabelled competitor at 100-fold concentration, 15 min, 30 °C, 50 mM potassium phosphate pH 7.0. From the text:
inhibition of [α-32P]ATP uptake into intact E. coli cells on PfANT

A further assay addresses T2, TgANT (Toxoplasma gondii, UniProt A0A7J6KCX5).
T2 construct: gene TGRH88_003770; codon-optimised CDS in pET16b, expressed in the plasma membrane of intact E. coli BL21 (DE3); HA tag in the IFA construct
T2 sequence (A0A7J6KCX5 1-413): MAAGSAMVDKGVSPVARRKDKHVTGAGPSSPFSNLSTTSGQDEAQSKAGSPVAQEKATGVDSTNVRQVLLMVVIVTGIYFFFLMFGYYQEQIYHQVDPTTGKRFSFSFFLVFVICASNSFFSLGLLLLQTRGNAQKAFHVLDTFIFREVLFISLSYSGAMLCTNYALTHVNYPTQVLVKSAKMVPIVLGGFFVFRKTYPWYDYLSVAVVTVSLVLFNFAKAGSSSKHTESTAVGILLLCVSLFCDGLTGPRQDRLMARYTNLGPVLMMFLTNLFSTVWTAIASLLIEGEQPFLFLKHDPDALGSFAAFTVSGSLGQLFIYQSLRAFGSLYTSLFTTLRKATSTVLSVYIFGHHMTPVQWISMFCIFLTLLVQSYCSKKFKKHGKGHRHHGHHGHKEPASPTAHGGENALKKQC
Described as above. The class given is cell-based. Conditions: 25 nM [α-32P]ATP, unlabelled competitor at 100-fold concentration, 15 min, 30 °C, 50 mM potassium phosphate pH 7.0. The source says: inhibition of [α-32P]ATP uptake into intact E. coli cells on TgANT

Consider `Nc1ncnc2c1ncn2[C@@H]1O[C@H](COP(=O)(O)OP(=O)(O)O)[C@@H](O)[C@H]1O` [ADP], for which the “Uptake(% of control)” value was 28.9 ±3.8 % of control at PfANT and 3.9 ±0.31 % of control at TgANT.

Turning to `Nc1ncnc2c1ncn2[C@@H]1O[C@H](COP(=O)(O)OP(=O)(O)OP(=O)(O)O)[C@@H](O)[C@H]1O` [ATP], the “Uptake(% of control)” value was 23.8 ±1.4 % of control at PfANT and 3.4 ±0.25 % of control at TgANT.
